{
  "source": "PubChem BioAssay AID2060346",
  "about": "(Molecular Pharmacology Branch, DTP, NCI, 2025);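 further: spheroids exposed to drugs for seven days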;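 on viability, T/C: 100% = DMSO vehicle control wells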",
  "test_system": "CN0375-F725-PDC multi-cell spheroids, viability",
  "assay": "Anticancer human tumor CN0375-F725-PDC patient-derived colon carcinoma cell line growth inhibition [TAK]",
  "settings": "for IC50: curve of first compound; for viability, T/C: stronger effect = lower value",
  "in_short": "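Tumor cells were grown as spheroids with HUVEC and hMSC (60:25:15) and treated with targeted agents combined with TAK-243 or ipatasertib. Drugs were tested in half-log steps down from near the clinical Cmax, or from 10 microM where Cmax was unknown.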",
  "data": [
    {"smiles": "CC(C)(C)c1nc(-c2cccc(NS(=O)(=O)c3c(F)cccc3F)c2F)c(-c2ccnc(N)n2)s1", "note": "+ CC(C)NCC(C(=O)N1CCN(c2ncnc3c2C(C)CC3O)CC1)c1ccc(Cl)cc1", "values": [
      {"measurement": "IC50", "setting": "second compound 0.3 µM", "value": "> 10000", "unit": "nM"},
      {"measurement": "IC50", "setting": "second compound 0.949 µM", "value": "> 10000", "unit": "nM"},
      {"measurement": "IC50", "setting": "second compound 3 µM", "value": "> 10000", "unit": "nM"},
      {"measurement": "IC50", "setting": "second compound 9.49 µM", "value": "> 10000", "unit": "nM"},
      {"measurement": "IC50", "setting": "second compound 30 µM", "value": "> 10000", "unit": "nM"},
      {"measurement": "viability, T/C", "setting": "second compound 0.3 µM, first compound 0.0316 µM", "value": 121, "unit": "%"},
      {"measurement": "viability, T/C", "setting": "second compound 0.3 µM, first compound 0.1 µM", "value": 128, "unit": "%"},
      {"measurement": "viability, T/C", "setting": "second compound 0.3 µM, first compound 0.316 µM", "value": 124, "unit": "%"},
      {"measurement": "viability, T/C", "setting": "second compound 0.3 µM, first compound 1 µM", "value": 118, "unit": "%"},
      {"measurement": "viability, T/C", "setting": "second compound 0.3 µM, first compound 3.16 µM", "value": 105, "unit": "%"},
      {"measurement": "viability, T/C", "setting": "second compound 0.3 µM, first compound 10 µM", "value": 108, "unit": "%"},
      {"measurement": "viability, T/C", "setting": "second compound 0.949 µM, first compound 0.0316 µM", "value": 123, "unit": "%"},
      {"measurement": "viability, T/C", "setting": "second compound 0.949 µM, first compound 0.1 µM", "value": 125, "unit": "%"},
      {"measurement": "viability, T/C", "setting": "second compound 0.949 µM, first compound 0.316 µM", "value": 120, "unit": "%"},
      {"measurement": "viability, T/C", "setting": "second compound 0.949 µM, first compound 1 µM", "value": 111, "unit": "%"},
      {"measurement": "viability, T/C", "setting": "second compound 0.949 µM, first compound 3.16 µM", "value": 95, "unit": "%"},
      {"measurement": "viability, T/C", "setting": "second compound 0.949 µM, first compound 10 µM", "value": 107, "unit": "%"},
      {"measurement": "viability, T/C", "setting": "second compound 3 µM, first compound 0.0316 µM", "value": 108, "unit": "%"},
      {"measurement": "viability, T/C", "setting": "second compound 3 µM, first compound 0.1 µM", "value": 119, "unit": "%"},
      {"measurement": "viability, T/C", "setting": "second compound 3 µM, first compound 0.316 µM", "value": 120, "unit": "%"},
      {"measurement": "viability, T/C", "setting": "second compound 3 µM, first compound 1 µM", "value": 103, "unit": "%"},
      {"measurement": "viability, T/C", "setting": "second compound 3 µM, first compound 3.16 µM", "value": 94.9, "unit": "%"},
      {"measurement": "viability, T/C", "setting": "second compound 3 µM, first compound 10 µM", "value": 92.1, "unit": "%"},
      {"measurement": "viability, T/C", "setting": "second compound 9.49 µM, first compound 0.0316 µM", "value": 98, "unit": "%"},
      {"measurement": "viability, T/C", "setting": "second compound 9.49 µM, first compound 0.1 µM", "value": 108, "unit": "%"},
      {"measurement": "viability, T/C", "setting": "second compound 9.49 µM, first compound 0.316 µM", "value": 105, "unit": "%"},
      {"measurement": "viability, T/C", "setting": "second compound 9.49 µM, first compound 1 µM", "value": 97.9, "unit": "%"},
      {"measurement": "viability, T/C", "setting": "second compound 9.49 µM, first compound 3.16 µM", "value": 85.4, "unit": "%"},
      {"measurement": "viability, T/C", "setting": "second compound 9.49 µM, first compound 10 µM", "value": 86.2, "unit": "%"},
      {"measurement": "viability, T/C", "setting": "second compound 30 µM, first compound 0.0316 µM", "value": 94.3, "unit": "%"},
      {"measurement": "viability, T/C", "setting": "second compound 30 µM, first compound 0.1 µM", "value": 102, "unit": "%"},
      {"measurement": "viability, T/C", "setting": "second compound 30 µM, first compound 0.316 µM", "value": 89.6, "unit": "%"},
      {"measurement": "viability, T/C", "setting": "second compound 30 µM, first compound 1 µM", "value": 79.3, "unit": "%"},
      {"measurement": "viability, T/C", "setting": "second compound 30 µM, first compound 3.16 µM", "value": 77.7, "unit": "%"},
      {"measurement": "viability, T/C", "setting": "second compound 30 µM, first compound 10 µM", "value": 75, "unit": "%"}
    ]},
    {"smiles": "CC(=O)Nc1cccc(-n2c(=O)n(C3CC3)c(=O)c3c(Nc4ccc(I)cc4F)n(C)c(=O)c(C)c32)c1", "note": "+ CC(C)NCC(C(=O)N1CCN(c2ncnc3c2C(C)CC3O)CC1)c1ccc(Cl)cc1", "values": [
      {"measurement": "IC50", "setting": "second compound 0.3 µM", "value": 9.39, "unit": "nM"},
      {"measurement": "IC50", "setting": "second compound 0.949 µM", "value": 5.66, "unit": "nM"},
      {"measurement": "IC50", "setting": "second compound 3 µM", "value": 5.23, "unit": "nM"},
      {"measurement": "IC50", "setting": "second compound 9.49 µM", "value": 4.87, "unit": "nM"},
      {"measurement": "IC50", "setting": "second compound 30 µM", "value": 1.23, "unit": "nM"},
      {"measurement": "viability, T/C", "setting": "second compound 0.3 µM, first compound 94.9 pM", "value": 99.7, "unit": "%"},
      {"measurement": "viability, T/C", "setting": "second compound 0.3 µM, first compound 0.0003 µM", "value": 93, "unit": "%"},
      {"measurement": "viability, T/C", "setting": "second compound 0.3 µM, first compound 0.000949 µM", "value": 74.4, "unit": "%"},
      {"measurement": "viability, T/C", "setting": "second compound 0.3 µM, first compound 0.003 µM", "value": 68.9, "unit": "%"},
      {"measurement": "viability, T/C", "setting": "second compound 0.3 µM, first compound 0.00949 µM", "value": 48.6, "unit": "%"},
      {"measurement": "viability, T/C", "setting": "second compound 0.3 µM, first compound 0.03 µM", "value": 33.7, "unit": "%"},
      {"measurement": "viability, T/C", "setting": "second compound 0.949 µM, first compound 94.9 pM", "value": 92.4, "unit": "%"},
      {"measurement": "viability, T/C", "setting": "second compound 0.949 µM, first compound 0.0003 µM", "value": 86.3, "unit": "%"},
      {"measurement": "viability, T/C", "setting": "second compound 0.949 µM, first compound 0.000949 µM", "value": 75.5, "unit": "%"},
      {"measurement": "viability, T/C", "setting": "second compound 0.949 µM, first compound 0.003 µM", "value": 57.1, "unit": "%"},
      {"measurement": "viability, T/C", "setting": "second compound 0.949 µM, first compound 0.00949 µM", "value": 44.3, "unit": "%"},
      {"measurement": "viability, T/C", "setting": "second compound 0.949 µM, first compound 0.03 µM", "value": 31.5, "unit": "%"},
      {"measurement": "viability, T/C", "setting": "second compound 3 µM, first compound 94.9 pM", "value": 88.1, "unit": "%"},
      {"measurement": "viability, T/C", "setting": "second compound 3 µM, first compound 0.0003 µM", "value": 83.5, "unit": "%"},
      {"measurement": "viability, T/C", "setting": "second compound 3 µM, first compound 0.000949 µM", "value": 70, "unit": "%"},
      {"measurement": "viability, T/C", "setting": "second compound 3 µM, first compound 0.003 µM", "value": 56.3, "unit": "%"},
      {"measurement": "viability, T/C", "setting": "second compound 3 µM, first compound 0.00949 µM", "value": 43.6, "unit": "%"},
      {"measurement": "viability, T/C", "setting": "second compound 3 µM, first compound 0.03 µM", "value": 30.1, "unit": "%"},
      {"measurement": "viability, T/C", "setting": "second compound 9.49 µM, first compound 94.9 pM", "value": 81.4, "unit": "%"},
      {"measurement": "viability, T/C", "setting": "second compound 9.49 µM, first compound 0.0003 µM", "value": 82.7, "unit": "%"},
      {"measurement": "viability, T/C", "setting": "second compound 9.49 µM, first compound 0.000949 µM", "value": 69.9, "unit": "%"},
      {"measurement": "viability, T/C", "setting": "second compound 9.49 µM, first compound 0.003 µM", "value": 57.4, "unit": "%"},
      {"measurement": "viability, T/C", "setting": "second compound 9.49 µM, first compound 0.00949 µM", "value": 40.3, "unit": "%"},
      {"measurement": "viability, T/C", "setting": "second compound 9.49 µM, first compound 0.03 µM", "value": 26.1, "unit": "%"},
      {"measurement": "viability, T/C", "setting": "second compound 30 µM, first compound 94.9 pM", "value": 70, "unit": "%"},
      {"measurement": "viability, T/C", "setting": "second compound 30 µM, first compound 0.0003 µM", "value": 67.5, "unit": "%"},
      {"measurement": "viability, T/C", "setting": "second compound 30 µM, first compound 0.000949 µM", "value": 53, "unit": "%"},
      {"measurement": "viability, T/C", "setting": "second compound 30 µM, first compound 0.003 µM", "value": 36.1, "unit": "%"},
      {"measurement": "viability, T/C", "setting": "second compound 30 µM, first compound 0.00949 µM", "value": 24.1, "unit": "%"},
      {"measurement": "viability, T/C", "setting": "second compound 30 µM, first compound 0.03 µM", "value": 13.6, "unit": "%"}
    ]}
  ]
}
